Several values for one entry are separate records, joined by “and”; a condition that tells them apart may be missing. Equal values may be shown once. Read-outs that look alike come from different tables or passages of the source.
Columns and labels:
SARS‐CoV‐2 M^pro = SARS‐CoV‐2 M^pro (Severe acute respiratory syndrome coronavirus 2, UniProt P0DTD1); assay: SARS‐CoV‐2 main protease enzymatic assay (FRET inhibitor screening kit); type: biochemical; conditions: for inhibition at 5 µM: read-out: Inhibitionrate at @5μM
SARS‐CoV‐2 [1] = assay: microbe, parasite or virus in culture; type: cell-based
[2] = test system: SARS‐CoV‐2 (hCoV‐19/Korea/KCDC06/2020, wild type); assay: microbe, parasite or virus in culture; type: cell-based
in vitro [3] = conditions: African green monkey
in vitro [4] = conditions: human
[5] = cytotoxicity; cited from earlier work
SARS‐CoV‐2 [6] = conditions: Vero E6; cited from earlier work
SARS-CoV-2 M^pro = conditions: cited from earlier work
[7] = cited from earlier work
[8] = Severe acute respiratory syndrome coronavirus 2, Vero cells, with CP‐100356, read-out: EC50 ± SD, Vero cells, with P‐gp inhibitor
[9] = Severe acute respiratory syndrome coronavirus 2, Vero cells, without CP‐100356, read-out: EC50 ± SD, Vero cells, without P‐gp inhibitor
[10] = Calu‐3 cells, without CP‐100356, read-out: EC50 ± SD, Calu‐3 cells, without P‐gp inhibitor
[11] = Severe acute respiratory syndrome coronavirus 2, Calu-3, Calu‐3 cells, with CP‐100356, read-out: EC50 ± SD, Calu‐3 cells, with P‐gp inhibitor
[12] = Severe acute respiratory syndrome coronavirus 2, Calu-3, Calu‐3 cells, without CP‐100356, read-out: EC50 ± SD, Calu‐3 cells, without P‐gp inhibitor
[13] = Severe acute respiratory syndrome coronavirus 2, Calu-3, Calu‐3 cells, racemate, enantiomers and […] measured in the same system, read-out: EC50, anti‐SARS‐CoV‐2 activity in Calu‐3 cells (Figure 3B)

| SMILES | IC50 (SARS‐CoV‐2 M^pro) | inhibition of M^pro enzymatic activity, first round of screening (SARS‐CoV‐2 M^pro) | inhibition at 5 µM (SARS‐CoV‐2 M^pro) | EC50 (SARS‐CoV‐2 [1]; [8]) | EC50 (SARS‐CoV‐2 [1]; [9]) | EC50 [2, 11] | EC50 [2, 12] | CC50 at 2 day (in vitro [3]) | CC50 at 2 day (in vitro [4]; CC50, Calu‐3 cells, MTT assay) | also measured |
| --- | --- | --- | --- | --- | --- | --- | --- | --- | --- | --- |
| Cc1cncc(C(=O)N2C[C@H]3CC[C@@H](C2)N3C(c2cccc(F)c2)c2cn(Cc3ccc([N+](=O)[O-])cc3)nn2)c1 (some centres unmarked) [Compound C5N6] | 2500 ± 13 nM | 88% | 68.8% | 1740 ± 238 nM | 1830 ± 30 nM | 1050 ± 14 nM | < 1000 nM | > 100000 nM | > 100000 nM | EC50 [2, 10]: 767 ± 156 nM |
| Cc1cncc(C(=O)N2C[C@H]3CC[C@@H](C2)N3C(c2cccc(F)c2)c2cn(Cc3cccc([N+](=O)[O-])c3)nn2)c1 (some centres unmarked) [Compound C5N5] | 1230 ± 1 nM | 93% | 79.2% | 1850 ± 526 nM | 1790 ± 21 nM | 2560 ± 86 nM | 2860 ± 395 nM | > 100000 nM | > 100000 nM | – |
| Cc1cncc(C(=O)N2C[C@H]3CC[C@@H](C2)N3C(c2cccc(F)c2)c2cn(CC(N)=O)nn2)c1 (some centres unmarked) [Compound C5N58] | 151 ± 6 nM | 99% | 100% | 1390 ± 171 nM | > 100000 nM | 337 nM | 4940 ± 687 nM | > 100000 nM | > 100000 nM | EC50 ([2]; Calu‐3 cells, with CP‐100356, read-out: EC50 ± SD, Calu‐3 cells, with P‐gp inhibitor): 338 ± 56 nM |
| O=C(c1cccnc1)N1CCN(C(c2cccc(F)c2)c2cn(CCN3C(=O)c4ccccc4C3=O)nn2)CC1 (centres unmarked) [Compound C4N21] | – | 82% | 80.2% | > 10000 nM | > 69800 nM | 4020 ± 566 nM | 74400 ± 36300 nM | 69800 ± 1050 nM | – | IC50 (SARS‐CoV‐2 M^pro; purified compounds, FRET assay): 1300 ± 17 nM; CC50 at 2 day (in vitro [4]): > 100000 nM |
| O=C(c1cccnc1)N1CCN(C(c2cccc(F)c2)c2cn(CCc3ccsc3)nn2)CC1 (centres unmarked) [Compound C4N17] | – | 86% | 72.3% | 2460 ± 314 nM | 2740 ± 110 nM | 880 ± 109 nM | 1850 ± 139 nM | > 100000 nM | – | IC50 (SARS‐CoV‐2 M^pro; purified compounds, FRET assay): 1870 ± 13 nM; CC50 at 2 day (in vitro [4]): > 100000 nM |
| Cn1cnc(Cn2c(=O)[nH]/c(=N\c3cc4cn(C)nc4cc3Cl)n(Cc3cc(F)c(F)cc3F)c2=O)n1 [Ensitrelvir, reference compound] | – | – | – | – | – | – | – | > 100000 nM | > 100000 nM | EC50 (SARS‐CoV‐2 [1]; Severe acute respiratory syndrome coronavirus 2, Vero, read-out: EC50 ± SD, Vero cells, with P‐gp inhibitor): < 46 nM; EC50 (SARS‐CoV‐2 [1]; Severe acute respiratory syndrome coronavirus 2, Vero, read-out: EC50 ± SD, Vero cells, without P‐gp inhibitor): 165 ± 15 nM; EC50 ([2]; Severe acute respiratory syndrome coronavirus 2, Calu-3, read-out: EC50 ± SD, Calu‐3 cells, with P‐gp inhibitor): < 46 nM; EC50 ([2]; Severe acute respiratory syndrome coronavirus 2, Calu-3, read-out: EC50 ± SD, Calu‐3 cells, without P‐gp inhibitor): 110 nM; EC50 ([2]; read-out: EC50 ± SD, Calu‐3 cells, without P‐gp inhibitor): 112 ± 11 nM |
| Cc1cncc(C(=O)N2C[C@H]3CC[C@@H](C2)N3C(c2cccc(F)c2)c2cn(C[S+]([O-])c3ccccc3)nn2)c1 (some centres unmarked) [Compound C5N41] | 243 ± 11 nM | 100% | 92.3% | 2270 ± 89 nM | 3670 ± 513 nM | 97 ± 5 nM | 1780 ± 1 nM | > 100000 nM | > 100000 nM | – |
| Cc1cncc(C(=O)N2C[C@H]3CC[C@@H](C2)N3C(c2cccc(F)c2)c2cn(Cc3ccc(S(C)(=O)=O)cc3)nn2)c1 (some centres unmarked) [Compound C5N50] | 2400 ± 100 nM | 90% | 69% | 6570 ± 430 nM | 36100 ± 1380 nM | 2900 ± 263 nM | 17000 ± 778 nM | > 100000 nM | > 100000 nM | – |
| Cc1cncc(C(=O)N2C[C@H]3CC[C@@H](C2)N3C(c2cccc(F)c2)c2cn(CCN3C(=O)c4ccccc4C3=O)nn2)c1 (some centres unmarked) [Compound C5N21] | 150 ± 4 nM | 100% | 99.5% | 1380 ± 119 nM | 16200 ± 410 nM | 259 ± 43 nM | < 1000 nM | > 100000 nM | > 100000 nM | EC50 [2, 10]: 591 ± 11 nM |
| CNC(=O)Cn1cc(C(c2cccc(F)c2)N2[C@@H]3CC[C@H]2CN(C(=O)c2cncc(C)c2)C3)nn1 (some centres unmarked) [Compound C5N57] | 580 ± 5 nM | 96% | 85.1% | > 10000 nM | > 100000 nM | 2330 ± 66 nM | 4040 ± 986 nM | > 100000 nM | > 100000 nM | – |
| O=C(c1cccnc1)N1C[C@H]2CC[C@@H](C1)N2C(c1cccc(F)c1)c1cn(CCc2ccsc2)nn1 (some centres unmarked) [Compound C6N17] | 300 ± 12 nM | 90% | 91.7% | – | – | – | – | – | – | – |
| O=C(c1cccnc1)N1C[C@H]2CC[C@@H](C1)N2C(c1cccc(F)c1)c1cn(CCN2C(=O)c3ccccc3C2=O)nn1 (some centres unmarked) [Compound C6N21] | 200 ± 16 nM | 89% | 95.1% | – | – | – | – | – | – | – |
| Cc1cncc(C(=O)N2C[C@H]3CC[C@@H](C2)N3C(c2cccc(F)c2)c2cn(Cc3cccc(F)c3)nn2)c1 (some centres unmarked) [Compound C5N64] | 1230 ± 100 nM | 93% | 79.9% | 2860 ± 131 nM | 4200 ± 738 nM | 479 ± 26 nM | 2940 ± 124 nM | > 100000 nM | > 100000 nM | – |
| Cc1cncc(C(=O)N2C[C@H]3CC[C@@H](C2)N3C(c2cccc(F)c2)c2cccc(F)c2)c1 [AA‐625, reference compound] | 900 nM and 904 nM | 57% | 87.9% | 2020 ± 76 nM | 2050 ± 56 nM | < 10 nM | 150 nM | 43900 ± 2940 nM | > 100000 nM | EC50 [2, 10]: 148 ± 7 nM; CC50 at 2 day (in vitro [4]; CC50 (Table 3), Calu‐3 cells): 42900 ± 414 nM; CC50 [5]: 22500 nM |
| Cc1cncc(C(=O)N2C[C@H]3CC[C@@H](C2)N3C(c2cccc(F)c2)c2cn(CCc3ccsc3)nn2)c1 (some centres unmarked) [Compound C5N17] | 177 ± 16 nM | 101% | 98.7% | 363 ± 29 nM | 1570 ± 131 nM | 28 ± 2 nM | 166 ± 11 nM | > 100000 nM | > 100000 nM | EC50 [2, 13]: 200 ± 27 nM; CC50 at 2 day (in vitro [4]; CC50 (Table 3), Calu‐3 cells): > 100000 nM |
| Cc1cncc(C(=O)N2C[C@H]3CC[C@@H](C2)N3C(c2cccc(F)c2)c2cn(CCc3ccccc3)nn2)c1 (some centres unmarked) [Compound C5N16] | 283 ± 18 nM | 99% | 93% | 1890 ± 524 nM | 2000 ± 21 nM | 80 ± 2 nM | – | > 100000 nM | > 100000 nM | – |
| COC(=O)CCCn1cc(C(c2cccc(F)c2)N2[C@@H]3CC[C@H]2CN(C(=O)c2cncc(C)c2)C3)nn1 (some centres unmarked) [Compound C5N39] | 253 ± 10 nM | 96% | 87.6% | 1600 ± 249 nM | 1870 ± 270 nM | 253 ± 26 nM | < 1000 nM | > 100000 nM | > 100000 nM | EC50 [2, 10]: 899 ± 312 nM |
| O=C(NCc1cccs1)C1CN(C(=O)c2cccnc2)CCN1c1ccc(Cl)c(Cl)c1 (centres unmarked) [GC‐14, reference compound] | 800 nM and 750 nM | 98% | – | 3420 ± 443 nM | – | 755 ± 46 nM | 1420 ± 57 nM | – | > 100000 nM | EC50 (SARS‐CoV‐2 [6]): 1100 nM; IC50 (SARS-CoV-2 M^pro): 400 nM; half‐life [7]: 1.72 h; oral bioavailability [7]: 7.2% |
| Cc1cncc(C(=O)N2C[C@H]3CC[C@@H](C2)N3[C@@H](c2cccc(F)c2)c2cn(CCc3ccsc3)nn2)c1 [Compound C5N17A] | 3180 nM | – | 53.2% | – | – | – | – | – | – | EC50 [2, 13]: 5950 nM; CC50 at 2 day (in vitro [4]; CC50, column 9, after the Calu-3 EC50 columns): > 100000 nM |
| Cc1cncc(C(=O)N2C[C@H]3CC[C@@H](C2)N3C(c2cccc(F)c2)c2cn(CS(=O)(=O)c3ccccc3)nn2)c1 (some centres unmarked) [Compound C5N42] | 196 ± 9 nM | 101% | 96.2% | 3050 ± 206 nM | 3680 ± 952 nM | 133 ± 19 nM | 1770 ± 55 nM | > 100000 nM | > 100000 nM | – |
